Laboratory results: PubChem BioAssay AID588780 (Sanford-Burnham Center for Chemical Genomics, 2011)
Active and inactive are the calls of the source.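 Rule for the calls: active = compounds whose fitted half-maximal concentration in the cell-protection dose series is at or below a set limit; inactive = the rest.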

What follows are compounds tested on H9c2 cardiomyocytes, 2-deoxyglucose stress, ATP luminescence, 2 h (assay: H9c2 cell survival under 2-deoxyglucose stress – uHTS hits, dose response (AID 588780)).
In the case of `O=C(CCc1nc2ccccc2c(=O)[nH]1)NCc1ccco1`, the IC50 is reported as > 79 µM (inactive). In the case of `Cc1cc(C)cc(N(CCC#N)C(=O)COC(=O)Cn2[nH]c(=O)c3ccccc3c2=O)c1`, the IC50 is reported as > 79 µM (inactive). For `COc1ccccc1-c1cc(C(=O)N/N=C/C=C/c2ccccc2[N+](=O)[O-])c2ccccc2n1`, the IC50 was > 79 µM (inactive). For `COc1cccc(Cn2nc(C(=O)O)c3ccccc3c2=O)c1`, the IC50 was 32.3 µM (inactive). With `CN(C)N(Cc1ccccc1)C(=O)C(O)(c1ccccc1)c1ccccc1` the IC50 was > 79 µM (inactive). `COc1ccc(OCC(=O)N/N=C/c2cccc3cccnc23)cc1` was tested, and the IC50 was 38.6 µM (inactive). For `COc1ccc(CCCNC(=O)C2(C)Cc3c(-c4ccc(NC(C)=O)cc4)ccnc3O2)cc1` (stereo unspecified), the IC50 was > 79 µM (inactive). In the case of `CC(=O)Nc1ccc(-c2csc(NC(=O)Nc3ccccc3)n2)cc1`, the IC50 is reported as 36.3 µM (inactive). With `O=C(N/N=C/c1cccc(O)c1)c1cc(-c2ccc3c(c2)OCO3)n[nH]1` the IC50 was > 79 µM (inactive). `COc1cc(C(=O)N/N=C/c2sc(N3CCOCC3)nc2-c2ccccc2)cc(OC)c1OC` was tested, and the IC50 was 25.8 µM. For `COc1cc(/C=N/n2nnnc2Nc2ccccc2)cc(OC)c1OC`, the IC50 was 26.8 µM. `CC(=O)Nc1cc(-c2ccc(C(=O)N3CCOCC3)cc2)cn2c(-c3ccc(C(C)=O)cc3)cnc12` gave an IC50 of 25.3 µM. `COc1cccc(-c2nn3c(-c4ccco4)nnc3s2)c1` was tested, and the IC50 was > 79 µM (inactive). `COc1ccc2occ(C(=O)c3coc4ccc(O)c(CN(C)C)c34)c2c1` was tested, and the IC50 was > 79 µM (inactive). With `CCC(=O)Nc1cccc(-c2nnc(-c3cccc(NC(=O)CC)c3)o2)c1` the IC50 was > 79 µM (inactive). Compound `Cc1ccc(CNC(=O)CCc2nc3ccccc3c(=O)[nH]2)cc1` has an IC50 of 13.9 µM. In the case of `COc1ccccc1NS(=O)(=O)c1ccc2oc(SCC(=O)N3CCNC3=O)nc2c1`, the IC50 is reported as 36.5 µM (inactive). `COc1ccc(C2/C=C\CN(S(=O)(=O)c3cccc4cccnc34)CC(=O)N2Cc2ccc(F)cc2)cc1` (stereo unspecified) was tested, and the IC50 was > 79 µM (inactive). In the case of `COc1ccc2c(c1)C(=O)[C@@H](O)[C@H](c1ccc(OC)c(Br)c1)O2`, the IC50 is reported as 5.76 µM. `O=C(CNC(=O)c1ccc(F)cc1)N/N=C/c1cc(Br)ccc1OC(=O)/C=C/c1ccco1` was tested, and the IC50 was > 79 µM (inactive). With `COc1ccc(-c2nnc3sc(-c4ccco4)nn23)cc1OC` the IC50 was > 79 µM (inactive). `CCOc1ccccc1N1CC(O)=C(c2nc3ccccc3s2)C1=N` was tested, and the IC50 was > 79 µM (inactive). For `O=c1oc2ccc3ccccc3c2cc1-c1nnc(-c2ccccc2)o1`, the IC50 was 17.3 µM. With `CSc1nc2ccc(S(=O)(=O)Nc3c(C)n(C)n(-c4ccccc4)c3=O)cc2s1` the IC50 was > 79 µM (inactive). `CC(=O)c1c(C)n(-c2cccc(Cl)c2)c2ccc(O)cc12` was tested, and the IC50 was 16.8 µM. `COCCn1nnnc1CN(CCc1ccccc1)Cc1cc2cc(OC)ccc2[nH]c1=O` was tested, and the IC50 was > 79 µM (inactive). In the case of `C#CCOc1nc(Nc2cccc([N+](=O)[O-])c2)nc(OCC#C)n1`, the IC50 is reported as > 79 µM (inactive). With `Cc1cccc(C(=O)N/N=C2\CS(=O)(=O)N(C)c3ccsc32)c1` the IC50 was 6.21 µM. With `COc1cc(OC)cc(-c2cc3nc(C)c(CCC(=O)Nc4nc(C)cs4)c(C)n3n2)c1` the IC50 was > 79 µM (inactive). For `COc1ccc(-c2csc(NC(=O)CCCc3nc4ccccc4c(=O)[nH]3)n2)cc1OC`, the IC50 was 25.3 µM. `O=C(CCc1nc2ccccc2c(=O)[nH]1)NNC(=O)COc1cccc(F)c1` was tested, and the IC50 was > 79 µM (inactive). With `COc1cc(OC)cc(C(=O)NNC(=O)CCc2nc3ccccc3c(=O)[nH]2)c1` the IC50 was > 79 µM (inactive). For `CCN(CC)c1ccc(C2C(C(=O)OC(C)C)C(=O)CC(C)(O)C2C(=O)OC(C)C)cc1` (stereo unspecified), the IC50 was 18.2 µM. With `CC(C)NC(=O)COC(=O)Cn1[nH]c(=O)c2ccccc2c1=O` the IC50 was > 79 µM (inactive). Work on `CCOc1cccc(Nc2cc3n(c(=O)n2)CCc2cc(OC)c(OC)cc2-3)c1` yielded an IC50 of 29.9 µM. With `O=C(COc1ccc(F)cc1)Nc1nc(-c2ccccn2)cs1` the IC50 was > 79 µM (inactive). In the case of `COc1ccc(NC(=S)N(Cc2cccnc2)Cc2cc3cc(OC)c(OC)cc3[nH]c2=O)cc1`, the IC50 is reported as > 79 µM (inactive). `COC(=O)c1ccccc1S(=O)(=O)N(Cc1ccco1)Cc1cc2cc(OC)ccc2[nH]c1=O` was tested, and the IC50 was 15.4 µM. For `O=c1[nH]c2cc([N+](=O)[O-])ccc2c2ccccc12`, the IC50 was > 79 µM (inactive). For `CCCC(=O)Nc1cc(C)c2c(=O)oc3ccccc3c2n1`, the IC50 was > 79 µM (inactive). For `Cc1cc(C)c(C)c(S(=O)(=O)N2CCN(C(=O)CCc3nc4ccccc4c(=O)[nH]3)CC2)c1C`, the IC50 was > 79 µM (inactive). With `COc1ccc(/C=C(\C#N)C(=O)c2c(C)[nH]c3ccccc23)cc1OC` the IC50 was > 79 µM (inactive). In the case of `CC(C)C(=O)N1CCN(c2ccc(NC(=O)COc3ccccc3[N+](=O)[O-])cc2)CC1`, the IC50 is reported as > 79 µM (inactive). For `COc1ccc(-c2cc(C(=O)Nc3ccccc3N3CCOCC3)c3ccccc3n2)cc1OC`, the IC50 was > 79 µM (inactive). With `COc1ccc(Nc2nnc(SCc3cc(=O)n4ccsc4n3)s2)cc1` the IC50 was 14.1 µM. In the case of `CCOC(=O)N1CCC(N2C(=O)c3ccccc3C2Nc2cc(OC)c(OC)c(OC)c2)CC1` (stereo unspecified), the IC50 is reported as > 79 µM (inactive). `NC(=O)c1nsc(C(=O)N(c2ccccc2F)C(C(=O)NCc2ccccc2)c2ccc(O)cc2)c1N` (stereo unspecified) was tested, and the IC50 was > 79 µM (inactive). `O=C(/C=C\c1cn(-c2ccccc2)nc1-c1ccc2c(c1)OCCO2)N1CCOCC1` was tested, and the IC50 was > 79 µM (inactive). With `CC(=O)c1cccc(Nc2nc3ccccc3n3cnnc23)c1` the IC50 was > 79 µM (inactive). `O=c1cc(CSc2nc3ccccc3c(=O)[nH]2)c2ccc(O)cc2o1` was tested, and the IC50 was > 79 µM (inactive). For `O=C(NC1CCCCC1)C(c1ccc2ncccc2c1)N(Cc1ccco1)C(=O)c1ccc2c(c1)OCCO2` (stereo unspecified), the IC50 was 31.4 µM (inactive). In the case of `COc1ccccc1OCC(=O)Nc1cccc(-c2nnc(-c3ccco3)o2)c1`, the IC50 is reported as > 79 µM (inactive). With `COc1ccc(CC(=O)N(Cc2ccccc2)c2ccccc2)cc1S(=O)(=O)N1CCOCC1` the IC50 was > 79 µM (inactive). With `O=C(Nc1nc(-c2ccc(S(=O)(=O)N3CCCC3)cc2)cs1)C1COc2ccccc2O1` (stereo unspecified) the IC50 was > 79 µM (inactive). `COc1cc(/C=C/c2nc(-c3ccccc3O)n[nH]2)cc(OC)c1OC` was tested, and the IC50 was > 79 µM (inactive). For `CCCN(CC(=O)Nc1ccc(F)c(F)c1F)C(=O)CCc1nc2ccccc2c(=O)[nH]1`, the IC50 was > 79 µM (inactive). `CCCc1cc(=O)oc2c(CNc3ccc(OCC)cc3)c(O)ccc12` showed an IC50 of 17.4 µM. `CC(C)(C)OC(=O)C[C@H]1C/C=C\C[C@H](CC(=O)N[C@H](CO)Cc2ccccc2)C(=O)N[C@H](Cc2ccccc2)COC1=O` was tested, and the IC50 was 20.5 µM. Compound `Cc1nn(-c2ccccc2)c(C)c1/C=N/NC(=O)c1cc(C2CC2)[nH]n1` has an IC50 of 12.5 µM. With `O=C(C[C@H]1C/C=C\CC[C@H](Cc2ccc(F)cc2)C(=O)O[C@H](c2ccccc2)CNC1=O)N[C@H](CO)Cc1ccccc1` the IC50 was > 79 µM (inactive). For `COC(=O)c1cc2ccc(OC)cc2c2cc(OC)c(OC)cc12`, the IC50 was > 79 µM (inactive). Compound `CCOc1ccccc1Nc1nnc(SCc2nnc(-c3cc(OC)c(OC)c(OC)c3)o2)s1` has an IC50 of 11.1 µM. `CNC(=O)COC(=O)/C=C/c1cn(-c2ccccc2)nc1-c1ccc(C)o1` gave an IC50 of 11.6 µM. For `Cc1ccc(Cn2c(CCNc3nc(-c4ccc(Cl)c([N+](=O)[O-])c4)cs3)nc3cc(C(=O)NCCCO)ccc32)cc1`, the IC50 was > 79 µM (inactive). `O=C(NCc1ccco1)c1cnn2c(C(F)(F)F)cc(-c3cccs3)nc12` was tested, and the IC50 was > 79 µM (inactive). With `COc1ccccc1NC(=O)c1cc(-c2cc(OC)c(OC)c(OC)c2)nc2ccccc12` the IC50 was > 79 µM (inactive).
